{"source": "patent US8669347B2", "about": "“Truncated variant of the mammalian target for rapamycin (MTOR) protein” (UCL Business PLC, priority 2007, dated 2014)", "test_system": "Hek293 stable cell lines", "test": "Cell proliferation assay (Resazurin based) of Hek293 stable cell lines", "set-up": "species or system human", "details": "overexpressing stable lines grown 7 days, six independent studies", "procedure": "Hek293 stable cell lines, over-expressing mTORβ wt, mTORα wt or EGFP were seeded into a 96 well plate at various densities (250, 500, 1000 and 2000 cells per well) and grown under standard conditions for 7 days. Cell numbers were than measured in each well by a Resosurin based assay. Normalized growth curves for each cell line were calculated using data from six independent experiments (A). Western blot analysis of total cell lysates of stable cell lines with antibodies to c-myc and its transcription targets (B). The level of proteins was densitometrically measured, actin normalized and folds were calculated against EGFP expressing stable cell line (C).\nHEK293 stable cell lines, overexpressing mTORβ wt, mTORβ kinase-dead or EGFP were seeded into 96 well plate at various densities (1000, 2000, 4000 and 8000 cells per well) and grown under standard conditions for 5 days. Cell numbers were then measured in each well by Resazurin based assay. Normalized growth curves for each cell line were calculated using data from six independent experiments (A). Western blot analysis of total cell lysates of stable cell lines with antibodies to c-myc and its transcription targets. The level of proteins was densitometrically measured, actin normalized and folds were calculated against EGFP expressing stable cell line (B). […]"}
{"substance": "mTORα wt: full-length mammalian target for rapamycin protein, approximately 2549 amino acids (SEQ ID NO: 4)", "values": [{"measurement": "proliferation compared to control (EGFP) cells", "value": "no difference in proliferation"}]}
